Measurements from article PMC6934184, “Selective DNA-PKcs inhibition extends the therapeutic index of localized radiotherapy and chemotherapy” (The Journal of Clinical Investigation, 2019).

Biological target: T1, CSNK2A1 (CK2 alpha 1) (Homo sapiens, UniProt P68400)
T1 construct: purchased Thermo Fisher Scientific (Life Technologies) SelectScreen
Test: SelectScreen Z'LYTE
Assay type: biochemical
Summary of the method: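 Compound tested in SelectScreen activity assays, Z'LYTE for CSF1R, CDK1/cyclin B and MAP2K6 and Adapta for CAMK1. ATP for CAMK1 was listed as 10, and Km app was used for CSF1R. Results are expressed in percent.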

T1 sequence (P68400 whole entry): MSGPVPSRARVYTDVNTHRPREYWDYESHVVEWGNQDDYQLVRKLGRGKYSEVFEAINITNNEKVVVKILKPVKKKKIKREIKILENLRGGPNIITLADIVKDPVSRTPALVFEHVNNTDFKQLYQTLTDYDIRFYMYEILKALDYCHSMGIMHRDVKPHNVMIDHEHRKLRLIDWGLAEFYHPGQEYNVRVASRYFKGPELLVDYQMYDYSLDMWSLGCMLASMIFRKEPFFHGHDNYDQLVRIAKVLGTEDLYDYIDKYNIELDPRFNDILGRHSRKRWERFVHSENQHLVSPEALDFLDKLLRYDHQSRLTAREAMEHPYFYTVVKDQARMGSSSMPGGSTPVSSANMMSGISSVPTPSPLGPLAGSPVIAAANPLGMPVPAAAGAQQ

Structure (SMILES): CN(C(=O)CN1CCOCC1)c1ccc2sc3c(-c4cccc5c(=O)cc(N6CC7CCC(C6)O7)oc45)cccc3c2c1 [NU5455]
- inhibition at 1 µM: 7.1%
